Experimental data taken from patent US20190330607A1, “USE OF A SUGAR TOLERANT BETA-GLUCOSIDASE” (Universitè de Liége, priority 2016, published 2019).
Where two headings read alike, the source gives them in different places.

Key:
Format in all cases: biochemical
[1] = tested on: BglC (beta-glucosidase of Streptomyces scabies 87-22); test: Relative enzyme activity of BglC with p-NPβG as substrate in presence of tested reagent
Experimental: (§1) Relative enzyme activity was determined using p-nitrophenyl-β-D-glucopyranoside (p-NPβG) as substrate. The reaction mixture (200 μL) containing 50 mM HEPES buffer (pH 7.5), 0.2 μM of purified BglC and the tested reagent was incubated 10 minutes at 25° C. before addition of 1 mM p-NPβG. The reaction was carried out at 25° C. for 2 minutes and stopped by addition of 100 μL of 2 M Na2CO3. All assays were performed under these conditions, unless otherwise indicated. The release of p-nitrophenol (p-NP) was measured at 405 nm with a TECAN Infinite® 200 PRO. The activity assayed in absence of the tested reagent was recorded as 100%.

[2] = Kinetic analysis of BglC on cellobiose (glucose released, D-Glucose HK Assay Kit)
Experimental: Kinetic parameters of BglC (Km and kcat) were determined by measuring the glucose released at various cellobiose concentrations in 50 mM HEPES buffer pH 7.5 at 26° C. Reaction time of 7 min was chosen to ensure initial rates of hydrolysis. The glucose released was determined using the D-Glucose HK Assay Kit from Megazyme (Ireland). Data were fitted to the Henri-Michaelis-Menten equation using the GraphPad Prism 5 software.

[3] = Time course of cellobiose hydrolysis by BglC over 7 days, HPLC
Experimental: Glucose and cellobiose analysis was performed by HPLC on an Aminex HPX-87P Column (300×7.8 mm) heated to 80° C. with H2O as eluent (flow rate 0.6 mL/min). Peaks were detected by refractive index detector (Waters 2414).
The tolerance of BglC to glucose was further investigated during prolonged reaction time (7 days). Cellobiose and glucose quantification were performed by HPLC (FIG. 5). 80% of cellobiose was hydrolyzed in 48 h (FIG. 5).

[4] = Substrate specificity of BglC by thin layer chromatography; details: 30° C.
Experimental: The cleavage ability of BglC was tested against different cello-oligosaccharides (cellobiose, cellotriose, cellotetraose, cellopentaose and cellohexaose (Megazyme; Ireland)) or different disaccharides (lactose, saccharose, maltose, threalose and turanose). Reaction mixtures (100 μL) containing 50 mM HEPES buffer pH 7.5, 0.4 μM of purified BglC, 6.25 mM of cello-oligosaccharides or 12.5 mM of disaccharides were incubated at 30° C. 15 μL of each sample were collected at 0, 15, 30 and 60 min than heated at 98° C. for 5 min to stop the reaction. Each sample was spotted onto aluminum-backed Silica gel plate (Sigma). The plates were developed with chloroform-methanol-acetic acid-water solvent (50:50:15:5, vol/vol), air dried, dipped in 5% H2SO4 in ethanol and finally heated over a hot plate until visualization of carbohydrate spots.

[5] = Effect of temperature and pH on BglC activity (p-NPβG)
Experimental: as §1
The optimal temperature was determined by measuring the relative enzyme activity of BglC in HEPES 50 mM pH 7.5 at 20, 25, 30, 37 and 42° C. To measure the effect of pH on activity of BglC, relative activity was essayed in the range of pH 5.0-6.5 (50 mM MES buffer), pH 7.0-8.5 (50 mM HEPES buffer) and pH 9-10 (50 mM CHES buffer) at 25° C.

[6] = reagent 10 mM, activity without additive = 100%
[7] = reagent 10%, activity without additive = 100%
[8] = Oses (15%), control = 100%, p-NPβG substrate
[9] = substrate cellobiose, 50 mM HEPES pH 7.5, 26° C.

Question: With `O[C@H](CS)[C@H](O)CS` (racemic) [DTT, dithiothreitol] as the molecule, how does the “Relative initial rate of hydrolysis (%)” value [1, 6] read?
Answer: 116 ± 5%

Question: Which “Relative initial rate of hydrolysis (%)” value [1, 6] does the source give for `O=C(O)CN(CCN(CC(=O)O)CC(=O)O)CC(=O)O` [EDTA, ethylene diamine tetraacetic acid] here?
Answer: 98 ± 15%

Question: For `CCO` [Ethanol, ethanol], which “ethanol concentration with maximal enhancing activity” value ([1]; ethanol 0 to 40% tested (FIG. 6)) is on record?
Answer: 15%

Question: What about the “Relative initial rate of hydrolysis (%)” value [1, 7] of the same molecule?
Answer: 218 ± 6%

Question: For `O=C(CO)[C@@H](O)[C@H](O)[C@H](O)CO` [Fructose, fructose], which “Relative initial rate of hydrolysis (%)” value [1, 8] is on record?
Answer: 178 ± 9%

Question: Which “Relative initial rate of hydrolysis (%)” value [1, 8] does the source give for `O=C[C@H](O)[C@@H](O)[C@@H](O)[C@H](O)CO` [Galaclose, galactose] here?
Answer: 255 ± 9%

Question: Which “Relative initial rate of hydrolysis (%)” value [1, 7] does the source give for `CO` [Methanol, methanol] here?
Answer: 65 ± 6%

Question: Which results are given for `[Cl-].[Na+]` [NaCl]?
Answer: activity of BglC kept ([1]; NaCl 500 mM (FIG. 7)): around 70%; activity of BglC ([1]; NaCl 1 M (FIG. 7)): about 50%; effect on capacity of the enzyme to hydrolyze p-NPβG ([1]; NaCl below 100 mM (FIG. 7)): does not significantly alter

Question: For `CCCCCCCCCCCCOS(=O)(=O)[O-].[Na+]` [SDS], which “Relative initial rate of hydrolysis (%)” value [1, 6] is on record?
Answer: 64 ± 3%

Question: For `OC[C@@H](O)[C@@H](O)[C@H](O)[C@@H](O)CO` [Sorbitol, sorbitol], which “Relative initial rate of hydrolysis (%)” value [1, 8] is on record?
Answer: 202 ± 1%

Question: Which “Relative initial rate of hydrolysis (%)” value [1, 6] does the source give for `NC(N)=O` [Urea, urea] here?
Answer: 103 ± 13%

Question: With `O=C[C@H](O)[C@@H](O)[C@H](O)CO` [Xylose, xylose] as the molecule, how does the “Relative initial rate of hydrolysis (%)” value [1, 8] read?
Answer: 340 ± 20%

Question: And the “maximal activity of BglC” value ([1]; xylose 0.3 to 1.6 M (FIG. 4))?
Answer: 300-350%

B1: BglC: recombinant His-tagged beta glucosidase of Streptomyces scabies 87-22, SEQ ID NO:2 (protein, listed as Streptomyces scabiei)
chain: MPEPVNPATPVTFPPAFLWGAATSAYQIEGAVREDGRTPSIWDTFSHTPGKTAGGENGDIAVDHYHRYRDDVAMMADLGLNAYRFSVSWSRVQPTGRGPAVQKGLDFYRRLVDELLAKGIKPAVTLYHWDLPQELEDAGGWPERDIVHRFAEYARIMGEALGDRVEQWITLNEPWCTAFLGYGSGVHAPGRTDPVASLRAAHHLNVAHGLGVSALRSAMPARNSIAVSLNSSVVRPITSSPEDRAAARKIDDLANGVFHGPMLHGAYPETLFAATSSLTDWSFVRDGDVATAHQPLDALGLNYYTPALVGAADAGLEGPRADGHGASEHSPWPAADDVLFHQTPGERTEMGWTIDPTGLHELIMRYAREAPGLPMYVTENGAAYDDKMDADGRVHDPERIAYLHGHLRAVRRAIAEGADVRGYYLWSLMDNFEWAYGYGKRFGAVYVDYATLTRTPKSSAHWYGQAAKTGALPPLAPAPA
modifications: His6 tag
Question: Which Vmax [2] does the source give for B1 here?
Answer: 7.3 µmol/min/mg

Question: What about the Km [2, 9] of the same molecule?
Answer: 770 µM

Question: And the Vmax [2, 9]?
Answer: 7.3 µmol/min/mg

Question: And the kcat [2, 9]?
Answer: 6.67 s⁻¹

Question: What about the transglycosylation activity ([3]; between glucose and cellobiose, 7 days reaction, glucose only product detected) of the same molecule?
Answer: no or reduced transglycosylation activity

Question: And the cellobiose hydrolyzed ([3]; in 48 h (FIG. 5))?
Answer: 80%

Question: And the “hydrolysis of cellobiose and cello-oligosaccharides (cellotriose to cellohexaose)” value ([4]; 6.25 mM substrate, 0.4 μM BglC, 0-60 min (FIG. 2))?
Answer: able to generate glucose

Question: And the “hydrolysis of other disaccharides (saccharose, maltose, threalose, turanose)” value ([4]; 12.5 mM disaccharides)?
Answer: did not reveal hydrolysis

Question: What about the hydrolysis of lactose ([4]; 12.5 mM, compared with cellobiose or cello-oligosaccharides) of the same molecule?
Answer: much less efficiency

Question: What about the “optimal pH” value ([5]; 25° C., pH 5-10 tested) of the same molecule?
Answer: around 7.5

Question: And the “activity relative to maximal activity” value ([5]; 42° C., HEPES 50 mM pH 7.5 (FIG. 3A))?
Answer: 10%
